Source: ChEMBL document CHEMBL1201862, “PubChem BioAssay data set” (2004)
Calls of active or inactive are those of the source.

Columns and labels:
[1] = NIH-3T3 fibroblast cytotoxicity, dose response, cytotoxicity control, cell-based, fluorescence, Alamar Blue, secondary assay (AID 2327); type: functional;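 note: NIH-3T3 mouse fibroblasts cultured with fluconazole at 8 µg/mL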
Bcl-2-like protein 10 = target: T1, Bcl-2-like protein 10 (Homo sapiens, UniProt Q9HD36); assay: Bcl-B/TR3 peptide binding disruption – biochemical, fluorescence polarization, FITC-TR3 peptide, selectivity assay for Bfl-1 inhibitor project, primary screen (AID 748);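 note: fluorescence polarization from a fluorescein-labelled TR3 peptide binding purified Bcl-B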
T1 sequence (Q9HD36 whole entry): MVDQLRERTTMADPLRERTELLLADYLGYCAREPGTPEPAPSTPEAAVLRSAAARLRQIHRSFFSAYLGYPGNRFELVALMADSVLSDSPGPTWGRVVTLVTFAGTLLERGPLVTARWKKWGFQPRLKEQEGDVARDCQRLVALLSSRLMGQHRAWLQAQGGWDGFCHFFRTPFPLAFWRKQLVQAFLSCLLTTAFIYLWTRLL

[2] = fluconazole-exposed Candida albicans growth modulators – fluorescence, retest, confirmation (AID 2467); type: functional, cell-based
Estrogen receptor = target: T2, Estrogen receptor (Homo sapiens, UniProt P03372);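 note: potency for inhibiting coactivator peptide recruitment to the receptor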
T2 sequence (P03372 whole entry): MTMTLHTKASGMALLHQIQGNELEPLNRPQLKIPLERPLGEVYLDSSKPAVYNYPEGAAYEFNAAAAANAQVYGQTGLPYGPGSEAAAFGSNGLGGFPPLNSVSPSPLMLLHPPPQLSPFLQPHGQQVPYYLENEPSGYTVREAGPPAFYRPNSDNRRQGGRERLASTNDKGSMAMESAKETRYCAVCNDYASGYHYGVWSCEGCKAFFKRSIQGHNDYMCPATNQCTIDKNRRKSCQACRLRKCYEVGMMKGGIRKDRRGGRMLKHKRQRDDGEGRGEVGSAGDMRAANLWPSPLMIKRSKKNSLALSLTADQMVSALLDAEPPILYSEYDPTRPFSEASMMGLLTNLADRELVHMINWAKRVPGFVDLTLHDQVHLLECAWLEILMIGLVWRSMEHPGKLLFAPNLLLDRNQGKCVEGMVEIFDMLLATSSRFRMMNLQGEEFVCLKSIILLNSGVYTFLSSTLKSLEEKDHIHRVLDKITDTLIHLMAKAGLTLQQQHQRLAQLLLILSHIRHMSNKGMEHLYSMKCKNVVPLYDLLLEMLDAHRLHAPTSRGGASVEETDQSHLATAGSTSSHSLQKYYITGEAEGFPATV

Nonstructural protein 1 = Nonstructural protein 1 (Influenza A virus, UniProt Q194T2); type: functional, Influenza A virus (A/California/07/2009(H1N1))
INS1 = assay: INS-1E survival protection against cytokine death – cell-based, luminescence, retest, dose response (AID 449756); type: functional; details: Rattus norvegicus;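 note: cell death triggered by IL-1 beta plus TNF-alpha plus IFN-gamma mixture; protective hits raise ATP signal compared with cytokine alone wells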
[3] = viability loss in THP-1 monocytes – THP-1 cells, cytotoxicity control for Vif-APOBEC3G degradation inhibitor project, dose response (AID 1117359); type: functional; details: THP-1
[4] = target: C-C chemokine receptor type 6 (Homo sapiens, UniProt P51684); assay: antagonism of CCR6 beta-arrestin recruitment – cell-based, luminescent beta-arrestin readout, dose response (AID 504728); type: functional
Beta-galactosidase = Beta-galactosidase (Escherichia coli, UniProt Q8VNN2); assay: detection-enzyme interference by beta-gal modulators – biochemical, E. coli enzyme, set 3, artefact control for CCR6 antagonist project, dose response (AID 504712); type: functional
[5] = target: T3, Heat shock factor protein 1 (Mus musculus, UniProt P38532); assay: decrease of HSF1-responsive luciferase luminescence – cell-based, NIH3T3, dose retest, confirmation (AID 2382); type: functional;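 note: NIH3T3 fibroblasts with HSF1-driven luciferase reporter stressed by proteasome inhibitor MG132; luminescence from HSF1-driven luciferase expression after 8 hours of MG132 stress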
T3 sequence (P38532 whole entry): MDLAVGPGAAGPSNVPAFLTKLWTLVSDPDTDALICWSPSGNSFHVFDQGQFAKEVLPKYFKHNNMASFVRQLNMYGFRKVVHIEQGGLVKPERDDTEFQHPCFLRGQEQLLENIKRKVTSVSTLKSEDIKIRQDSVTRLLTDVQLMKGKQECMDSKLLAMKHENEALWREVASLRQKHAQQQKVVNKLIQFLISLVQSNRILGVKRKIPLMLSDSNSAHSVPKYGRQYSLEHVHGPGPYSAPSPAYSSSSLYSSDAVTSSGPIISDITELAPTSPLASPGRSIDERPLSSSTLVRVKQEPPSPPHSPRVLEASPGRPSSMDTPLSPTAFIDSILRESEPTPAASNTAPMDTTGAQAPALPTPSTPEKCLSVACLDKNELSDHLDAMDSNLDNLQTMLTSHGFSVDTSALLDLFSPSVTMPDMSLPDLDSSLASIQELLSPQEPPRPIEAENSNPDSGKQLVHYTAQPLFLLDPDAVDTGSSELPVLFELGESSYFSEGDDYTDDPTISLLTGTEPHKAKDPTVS

[6] = target: G-protein coupled receptor 55 (Homo sapiens, UniProt Q9Y2T6); assay: selective activators of receptor GPR55 – imaging, U2OS cells, beta-arrestin-GFP redistribution, primary screen (AID 1961); type: functional
[7] = target: G-protein coupled receptor 35 (Homo sapiens, UniProt Q9HC97); assay: inhibition of zaprinast-stimulated GPR35 beta-arrestin translocation – imaging, U2OS, beta-arrestin-GFP, zaprinast agonist, primary screen (AID 2058); type: functional;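 note: antagonist potency meaning inhibition of agonist-induced arrestin redistribution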
Aminopeptidase N = Aminopeptidase N (Plasmodium falciparum FcB1/Columbia, UniProt O96935); assay: malaria alanyl aminopeptidase activity blockers – biochemical, fluorogenic H-Leu-NHMec substrate, 1536-well (AID 1445); design: species or system Plasmodium falciparum 3D7, 3D7
[8] = target: T4, Corticotropin-releasing factor receptor 2/Corticotropin-releasing factor-binding protein (Homo sapiens, UniProt P24387+Q13324); assay: Dose Response confirmation of uHTS hits for small molecule antagonists of the CRF-binding protein and CRF-R2 receptor complex.; type: functional; details: read-out: IC50_Mean
T4 sequence (Q13324 whole entry): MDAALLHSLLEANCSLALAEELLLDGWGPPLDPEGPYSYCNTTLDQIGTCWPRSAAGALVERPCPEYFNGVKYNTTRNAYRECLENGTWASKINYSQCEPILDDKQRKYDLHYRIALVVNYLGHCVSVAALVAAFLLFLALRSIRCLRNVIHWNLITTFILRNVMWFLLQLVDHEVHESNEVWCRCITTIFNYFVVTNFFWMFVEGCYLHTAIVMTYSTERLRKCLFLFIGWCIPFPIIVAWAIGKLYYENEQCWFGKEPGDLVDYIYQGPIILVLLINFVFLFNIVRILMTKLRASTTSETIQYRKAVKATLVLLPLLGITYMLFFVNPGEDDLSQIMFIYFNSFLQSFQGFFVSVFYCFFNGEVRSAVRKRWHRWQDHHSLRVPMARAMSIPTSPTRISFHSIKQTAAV
T4 sequence (P24387 whole entry): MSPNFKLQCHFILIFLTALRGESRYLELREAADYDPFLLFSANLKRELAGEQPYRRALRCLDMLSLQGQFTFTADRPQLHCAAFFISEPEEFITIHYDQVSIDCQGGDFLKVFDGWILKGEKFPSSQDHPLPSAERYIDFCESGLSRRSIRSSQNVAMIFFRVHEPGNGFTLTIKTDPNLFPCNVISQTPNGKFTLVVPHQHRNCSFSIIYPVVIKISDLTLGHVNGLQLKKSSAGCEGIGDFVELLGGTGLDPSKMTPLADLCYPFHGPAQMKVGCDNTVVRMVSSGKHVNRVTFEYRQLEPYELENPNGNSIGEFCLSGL

[9] = target: T4, Corticotropin-releasing factor receptor 2/Corticotropin-releasing factor-binding protein; assay: activators of CRF receptor 2 with binding protein – uHTS hits, confirmation (AID 602473); type: functional; details: read-out: EC50_Mean
[10] = blockers of CRF-binding protein–CRF-R2 complex – cell-based, uHTS hits, 384-well, dose response (AID 651639); type: functional, Homo sapiens; details: read-out: IC50_Mean
[11] = Luminescence Cell-Based Dose Confirmation HTS to Identify Activators of 5'UTR Stem-Loop Driven Alpha-Synuclein mRNA Translation in H4 Neuroglioblastoma Cells. [Related pubchem assays: 1829 (Project Summary), 1814 (Primary HTS)]; type: functional
[12] = Luminescence Cell-Based Dose Response HTS to Identify Activators of Luciferase Translation or Activity in H4 […] Cells. [Related pubchem assays: 1829 (Project Summary), 1814 (Primary HTS)]; type: functional
H4 = assay: Luminescence Cell-Based Dose Response HTS to Identify Activators of 5'UTR Stem-Loop Driven Prion Protein mRNA Translation in H4 Neuroglioblastoma Cells. [Related pubchem assays: 1829 (Project Summary), 1814 (Primary HTS)]; type: functional; details: Homo sapiens
[13] = viability of PTEN-deleted HCT116 cells – cell-based, HCT116 PTEN knockout, dose response (AID 1047); type: functional;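 note: HCT116 colon tumor cells with PTEN knocked out; cells exposed to compound for 60 hours before readout; potency for loss of cell viability measured by luminescence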
[14] = viability of HCT116 lacking mutant beta-catenin – cell-based, human colon tumor, dose response (AID 1045); type: functional;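 note: HCT116 colon tumor cells with beta catenin knocked out; cells exposed to compound for 60 hours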
[15] = Luminescence Cell-Based Dose Retest to Confirm Inhibitors of Cancer Stem Cells. [Related pubchem assays (depositor defined):AID2717, AID2721]; type: functional; details: Homo sapiens
[16] = target: DNA damage-inducible transcript 3 protein (Mus musculus, UniProt P35639); type: functional, Cricetulus griseus
[17] = decrease of insulin promoter-GFP reporter – imaging, high-content screening, mouse beta cells (AID 1628); type: functional; details: MIN6
[18] = MIN6 cell viability loss – mouse insulinoma, cytotoxicity control, dose response (AID 2122); type: functional;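 note: confirmatory high-throughput counterscreen run to flag cytotoxic compounds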
[19] = target: Scavenger receptor class B member 1 (Mus musculus, UniProt Q61009); assay: mouse SR-BI DiI-HDL uptake blockers – ldlA[mSR-BI] cells, fluorescence, cherry pick, dose response (AID 493194); type: functional, cell-based;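 note: cellular uptake of fluorescent DiI-labeled HDL measured as cell fluorescence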
[20] = reduction of Shn3 3'UTR-driven luciferase in osteoblasts – cell-based, Clone20 osteoblasts, firefly luciferase, cherry-picked, dose response (AID 624132); type: functional;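 note: firefly luciferase luminescence from reporter carrying the Shn3 3'UTR in osteoblasts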
[21] = loss of viability in HepG2 cells – cell-based, CellTiter-Glo, cherry-picked, cytotoxicity control for Shn3 inhibitor project, dose response (AID 624134); type: functional
Paired box protein Pax-8 = Paired box protein Pax-8 (Homo sapiens, UniProt Q06710); assay: PAX8 transcriptional activity inhibition in RMG-I – RMG-I cells, luciferase, cherry-pick, dose response (AID 687027); type: functional, cell-based;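 note: luciferase reporter driven by Pax8 target thyroperoxidase promoter measured by SteadyGlo luminescence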
[22] = IC50 of Artemis nuclease activity blockers – biochemical, fluorescence intensity, dose response (AID 720701); type: functional;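 note: Artemis endonuclease enzyme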
Cytochrome P450 2D6 = Cytochrome P450 2D6 (Homo sapiens, UniProt P10635); assay: qHTS Assay for Inhibitors and Substrates of Cytochrome P450 2D6. [Related pubchem assays: 410 ]; type: ADME; details: read-out: Potency
Cytochrome P450 2C9 = Cytochrome P450 2C9 (Homo sapiens, UniProt P11712); details: Potency
Hexokinase = Hexokinase (Trypanosoma brucei, UniProt Q38C41); assay: Confirmation assay for inhibitors of Trypanosoma brucei hexokinase 1-Analogue-first series. [Related pubchem assays (depositor defined):AID1430, AID1632, AID2516, AID2560, AID2579, AID2600, AID449725, AID492951]; type: functional
Chain of Hexokinase (Q38C41 whole entry): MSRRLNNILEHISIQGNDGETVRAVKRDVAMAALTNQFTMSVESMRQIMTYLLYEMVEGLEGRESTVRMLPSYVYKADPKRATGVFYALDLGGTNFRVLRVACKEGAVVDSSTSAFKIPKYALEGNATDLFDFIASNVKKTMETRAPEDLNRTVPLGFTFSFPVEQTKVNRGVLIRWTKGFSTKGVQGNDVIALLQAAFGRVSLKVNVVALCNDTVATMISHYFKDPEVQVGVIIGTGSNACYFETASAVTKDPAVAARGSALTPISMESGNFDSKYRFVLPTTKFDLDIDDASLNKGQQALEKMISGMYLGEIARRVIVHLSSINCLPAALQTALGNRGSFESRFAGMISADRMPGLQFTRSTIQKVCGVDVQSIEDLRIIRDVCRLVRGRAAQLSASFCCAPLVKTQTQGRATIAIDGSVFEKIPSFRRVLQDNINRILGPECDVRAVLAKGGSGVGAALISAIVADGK

Chain of Cytochrome P450 2C9 (P11712 whole entry): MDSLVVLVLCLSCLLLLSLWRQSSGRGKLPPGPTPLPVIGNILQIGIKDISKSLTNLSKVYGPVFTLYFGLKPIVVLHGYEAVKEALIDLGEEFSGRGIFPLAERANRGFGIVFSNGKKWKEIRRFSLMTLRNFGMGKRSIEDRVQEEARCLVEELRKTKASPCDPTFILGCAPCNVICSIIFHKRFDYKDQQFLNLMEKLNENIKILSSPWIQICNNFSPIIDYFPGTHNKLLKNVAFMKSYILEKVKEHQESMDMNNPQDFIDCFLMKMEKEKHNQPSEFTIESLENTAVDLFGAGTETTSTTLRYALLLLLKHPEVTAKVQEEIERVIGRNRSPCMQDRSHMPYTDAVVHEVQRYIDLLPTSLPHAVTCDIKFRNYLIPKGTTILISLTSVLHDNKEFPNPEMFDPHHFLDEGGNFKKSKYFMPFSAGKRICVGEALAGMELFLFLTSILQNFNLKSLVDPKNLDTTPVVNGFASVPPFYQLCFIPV
Chain of Scavenger receptor class B member 1 (Q61009 whole entry): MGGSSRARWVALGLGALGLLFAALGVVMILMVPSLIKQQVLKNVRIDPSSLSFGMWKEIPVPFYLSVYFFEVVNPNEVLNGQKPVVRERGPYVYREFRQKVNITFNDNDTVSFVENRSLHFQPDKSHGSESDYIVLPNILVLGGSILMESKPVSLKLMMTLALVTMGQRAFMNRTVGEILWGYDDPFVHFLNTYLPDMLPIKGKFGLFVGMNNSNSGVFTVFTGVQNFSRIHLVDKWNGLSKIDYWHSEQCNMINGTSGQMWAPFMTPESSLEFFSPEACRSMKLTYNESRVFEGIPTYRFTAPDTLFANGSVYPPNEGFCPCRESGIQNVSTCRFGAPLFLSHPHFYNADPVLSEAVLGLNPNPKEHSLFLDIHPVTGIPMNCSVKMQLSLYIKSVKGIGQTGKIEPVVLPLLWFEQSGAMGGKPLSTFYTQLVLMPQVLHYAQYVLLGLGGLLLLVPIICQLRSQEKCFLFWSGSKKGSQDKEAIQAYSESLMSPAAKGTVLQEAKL
Chain of Aminopeptidase N (O96935 whole entry): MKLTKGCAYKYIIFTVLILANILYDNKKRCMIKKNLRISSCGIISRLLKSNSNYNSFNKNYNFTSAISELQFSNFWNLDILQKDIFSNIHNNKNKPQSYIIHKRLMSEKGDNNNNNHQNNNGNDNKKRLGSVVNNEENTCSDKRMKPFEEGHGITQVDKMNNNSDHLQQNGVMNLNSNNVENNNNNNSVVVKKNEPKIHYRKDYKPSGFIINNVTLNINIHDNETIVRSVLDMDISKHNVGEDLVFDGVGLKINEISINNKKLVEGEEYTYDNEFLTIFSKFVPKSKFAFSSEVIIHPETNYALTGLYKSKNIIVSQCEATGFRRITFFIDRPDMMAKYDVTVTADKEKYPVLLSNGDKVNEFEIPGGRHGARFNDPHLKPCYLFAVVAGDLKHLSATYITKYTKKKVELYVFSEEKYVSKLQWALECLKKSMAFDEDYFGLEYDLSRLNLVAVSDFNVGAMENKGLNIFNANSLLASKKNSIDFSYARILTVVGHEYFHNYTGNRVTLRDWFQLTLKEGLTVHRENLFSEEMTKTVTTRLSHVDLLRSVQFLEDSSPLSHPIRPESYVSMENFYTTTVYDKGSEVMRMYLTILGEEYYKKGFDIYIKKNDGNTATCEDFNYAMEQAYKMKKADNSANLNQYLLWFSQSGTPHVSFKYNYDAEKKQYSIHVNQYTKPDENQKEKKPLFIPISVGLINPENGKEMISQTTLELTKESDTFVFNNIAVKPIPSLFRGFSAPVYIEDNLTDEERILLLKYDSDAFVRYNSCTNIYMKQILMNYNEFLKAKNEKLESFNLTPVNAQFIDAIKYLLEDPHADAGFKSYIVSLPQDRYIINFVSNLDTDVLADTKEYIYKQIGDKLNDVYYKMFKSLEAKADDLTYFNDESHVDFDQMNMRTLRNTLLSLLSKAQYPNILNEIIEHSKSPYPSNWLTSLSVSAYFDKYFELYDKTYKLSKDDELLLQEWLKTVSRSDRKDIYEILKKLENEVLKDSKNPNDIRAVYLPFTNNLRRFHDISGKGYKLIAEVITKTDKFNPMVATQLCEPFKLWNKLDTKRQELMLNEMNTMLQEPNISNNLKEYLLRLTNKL
Chain of Cytochrome P450 2D6 (P10635 whole entry): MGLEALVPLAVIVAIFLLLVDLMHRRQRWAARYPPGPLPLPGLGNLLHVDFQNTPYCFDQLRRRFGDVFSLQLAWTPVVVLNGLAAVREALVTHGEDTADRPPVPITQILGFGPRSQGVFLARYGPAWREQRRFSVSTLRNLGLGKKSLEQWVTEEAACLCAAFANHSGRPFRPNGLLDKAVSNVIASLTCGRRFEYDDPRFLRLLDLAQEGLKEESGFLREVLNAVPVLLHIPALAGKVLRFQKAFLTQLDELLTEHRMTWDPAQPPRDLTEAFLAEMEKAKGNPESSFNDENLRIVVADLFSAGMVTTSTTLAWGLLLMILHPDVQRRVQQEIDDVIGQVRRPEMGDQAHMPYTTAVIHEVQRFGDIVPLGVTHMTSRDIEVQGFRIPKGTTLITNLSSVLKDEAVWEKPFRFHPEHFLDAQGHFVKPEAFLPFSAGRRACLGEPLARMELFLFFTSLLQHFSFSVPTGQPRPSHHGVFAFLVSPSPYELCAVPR
Chain of C-C chemokine receptor type 6 (P51684 whole entry): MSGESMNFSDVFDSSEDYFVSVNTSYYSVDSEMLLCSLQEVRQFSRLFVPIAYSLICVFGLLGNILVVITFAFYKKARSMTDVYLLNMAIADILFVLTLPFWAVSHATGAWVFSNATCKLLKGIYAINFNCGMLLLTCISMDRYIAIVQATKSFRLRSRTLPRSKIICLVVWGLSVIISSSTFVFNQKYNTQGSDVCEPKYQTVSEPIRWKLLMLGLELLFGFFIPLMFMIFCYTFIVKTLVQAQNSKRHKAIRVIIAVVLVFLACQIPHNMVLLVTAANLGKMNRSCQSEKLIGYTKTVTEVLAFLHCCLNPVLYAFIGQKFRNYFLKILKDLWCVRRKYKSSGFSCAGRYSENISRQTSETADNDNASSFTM
Chain of Paired box protein Pax-8 (Q06710 whole entry): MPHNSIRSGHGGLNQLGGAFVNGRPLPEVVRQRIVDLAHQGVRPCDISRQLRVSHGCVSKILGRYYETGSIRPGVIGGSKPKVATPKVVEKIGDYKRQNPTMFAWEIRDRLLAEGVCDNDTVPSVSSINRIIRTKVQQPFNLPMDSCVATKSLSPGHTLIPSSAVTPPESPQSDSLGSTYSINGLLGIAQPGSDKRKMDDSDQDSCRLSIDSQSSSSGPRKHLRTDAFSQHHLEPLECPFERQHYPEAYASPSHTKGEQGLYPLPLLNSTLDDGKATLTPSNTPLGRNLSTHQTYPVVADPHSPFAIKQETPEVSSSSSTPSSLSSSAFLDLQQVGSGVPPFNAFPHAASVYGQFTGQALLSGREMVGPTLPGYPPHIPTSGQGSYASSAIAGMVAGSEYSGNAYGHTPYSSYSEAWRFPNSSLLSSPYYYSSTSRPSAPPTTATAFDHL
Chain of G-protein coupled receptor 55 (Q9Y2T6 whole entry): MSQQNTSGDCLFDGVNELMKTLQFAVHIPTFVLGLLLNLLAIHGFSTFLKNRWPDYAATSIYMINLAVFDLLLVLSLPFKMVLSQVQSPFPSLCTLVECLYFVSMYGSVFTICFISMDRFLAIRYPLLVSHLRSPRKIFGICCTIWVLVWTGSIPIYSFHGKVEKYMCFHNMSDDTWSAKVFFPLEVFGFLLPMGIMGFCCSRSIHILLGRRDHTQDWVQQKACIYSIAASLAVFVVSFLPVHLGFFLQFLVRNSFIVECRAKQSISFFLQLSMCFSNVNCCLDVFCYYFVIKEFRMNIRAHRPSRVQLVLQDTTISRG
Chain of G-protein coupled receptor 35 (Q9HC97 whole entry): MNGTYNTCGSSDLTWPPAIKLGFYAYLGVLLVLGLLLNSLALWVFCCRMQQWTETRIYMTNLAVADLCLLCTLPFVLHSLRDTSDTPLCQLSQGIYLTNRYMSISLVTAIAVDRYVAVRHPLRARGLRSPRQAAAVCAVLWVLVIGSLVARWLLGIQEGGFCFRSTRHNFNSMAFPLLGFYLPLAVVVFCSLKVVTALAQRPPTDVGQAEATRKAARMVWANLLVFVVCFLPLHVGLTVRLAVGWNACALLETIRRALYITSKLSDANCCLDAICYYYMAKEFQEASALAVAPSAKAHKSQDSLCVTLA
Chain of DNA damage-inducible transcript 3 protein (P35639 whole entry): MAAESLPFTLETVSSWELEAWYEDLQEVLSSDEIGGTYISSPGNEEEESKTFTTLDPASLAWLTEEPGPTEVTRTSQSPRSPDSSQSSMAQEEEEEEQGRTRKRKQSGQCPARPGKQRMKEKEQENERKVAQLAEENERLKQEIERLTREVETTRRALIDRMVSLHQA
Chain of Nonstructural protein 1 (Q194T2 whole entry): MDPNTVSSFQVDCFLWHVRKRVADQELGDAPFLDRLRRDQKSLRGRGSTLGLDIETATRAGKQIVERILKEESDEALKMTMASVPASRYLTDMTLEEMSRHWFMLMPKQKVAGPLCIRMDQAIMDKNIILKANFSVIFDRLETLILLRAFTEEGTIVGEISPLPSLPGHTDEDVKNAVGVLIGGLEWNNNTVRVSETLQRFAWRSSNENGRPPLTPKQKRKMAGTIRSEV

Cc1ccc2nc(O)c(C3C(C#N)=C(N)Oc4c3ccc3cccnc43)cc2c1 (stereo not drawn)
EC50 [1]: > 160 µM (inconclusive) | IC50 (Bcl-2-like protein 10): 66.8 µM (inactive) | EC50 [2]: 2.17 µM (active) | IC50 (Estrogen receptor): 19.5 µM (active) | IC50 (Nonstructural protein 1): 46.8 µM (active) | AC50 (INS1): 1.27 µM (active) | CC50 [3]: 2.48 µM (active)

C/C(CCC12CC3CC(CC(C3)C1)C2)=N\NC(N)=S
IC50 [4]: 50.4 µM (inactive) | IC50 (Beta-galactosidase): > 66.6 µM (inactive)

COc1ccc(F)cc1C(=O)C1CCCN(Cc2cccn2-c2ccccn2)C1 (stereo not drawn)
EC50 [5]: > 195 µM (not active) | EC50 [6]: 8.93 µM (active)

CC(=O)Nc1sc(/C(C#N)=C/c2ccc(Cl)c(Cl)c2)nc1-c1ccc(C)cc1
IC50 [7]: 534 nM (active)

O=C(ON=C1CCN(c2ccc([N+](=O)[O-])cc2)CC1)c1ccccc1
IC50 (Aminopeptidase N): 45.2 µM (active) | IC50 [8]: 2.74 µM (active) | EC50 [9]: > 53 µM (inactive) | IC50 [10]: > 20 µM (inactive)

C=C(C(=O)c1ccccc1)C(C)C(=C)C(=O)c1ccccc1
EC50 [11]: 7.98 µM (active) | EC50 [12]: > 120 µM (not active) | EC50 (H4): > 120 µM (not active) | EC50 [13]: 1.65 µM (active) | EC50 [14]: 1.14 µM (active) | AC50 [15]: 2.33 µM (active) | Absolute IC50 (CHOP) [16]: 10 µM | AC50 (INS1): 7.97 µM (active)

O=C(Nc1ccc(Cl)cc1)Nc1ccc(N2CCCC2)c(S(=O)(=O)Nc2ccccc2Cl)c1
IC50 [17]: 4.47 µM (active) | IC50 [18]: > 16 µM (inactive) | AC50 [19]: 23.5 µM (active) | AC50 (INS1): 6.99 µM (active) | AC50 [20]: 5.2 µM (active) | AC50 [21]: 7.06 µM (active) | AC50 (Paired box protein Pax-8): 5.13 µM (active)

O=C(Cc1ccccc1)Nc1ccc(N2CCCC2)cc1
IC50 (Bcl-2-like protein 10): 31.2 µM (active) | IC50 [22]: 6.03 µM (active)

COc1cccc(N(CC(=O)NC2CCCC2)C(=O)Cn2nnc(-c3ccc(C)cc3)n2)c1
AC50 [19]: 234 µM (active)

COc1ccc2c(c1OC)C(=O)O[C@@H]2[C@H]1c2cc3c(cc2CCN1C)OCO3 [HYDRASTINE]
AC50 (Cytochrome P450 2D6): 39.8 µM (inconclusive) | AC50 (Cytochrome P450 2C9): 25.1 µM (inconclusive)

COc1ccc(NC(=O)c2ccc(Cl)cc2C(=O)O)cc1
IC50 (Hexokinase): > 25 µM (inactive)

COc1ccc(-c2coc3ccc(O[C@@H]4O[C@@H](COC(C)=O)[C@@H](OC(C)=O)[C@@H](OC(C)=O)[C@H]4OC(C)=O)cc3c2=O)cc1
AC50 (Cytochrome P450 2C9): 20 µM (inconclusive)
